In patent publication US20240226225A1 (Protagonist Therapeutics, Inc., priority 2021, published 2024):
Starred links: 1 amine or outer side, 2 acyl side, 3 side chain; linkers in the order of their positions; H or OH if unused. Positions of bridges follow the written chain, without caps; N, C: chain ends. Non-standard residues stand in square brackets, D forms with d. Residues, ends and D or L forms follow the SMILES beside them. Groups on a side chain read outwards from the residue. *: point of attachment. CH3O(CH2CH2O)11CH2CH2CO = COCCOCCOCCOCCOCCOCCOCCOCCOCCOCCOCCOCCC(=O)*; Ala(1H-tetrazol-5-yl) = N[C@@H](Cc1nnn[nH]1)C(=O)O; C18 diacid = O=C(O)CCCCCCCCCCCCCCCCC(=O)*; Dip = N[C@H](C(=O)O)C(c1ccccc1)c1ccccc1; γGlu = O=C(O)[C@H](CCC(=O)[*:2])N[*:1]; Palmitoyl = CCCCCCCCCCCCCCCC(=O)*; β3hF = N[C@H](CC(=O)O)Cc1ccccc1; Isovaleryl = CC(C)CC(=O)*; AEEA = NCCOCCOCC(=O)O; X4 = O=C(CCC(F)(F)F)*; Ahx = NCCCCCC(=O)O

Tests used:
[1] = target: T1, ferroportin (Homo sapiens, UniProt Q9NP59); experiment: FPN activity assay: internalization/degradation of ferroportin-GFP in stably transfected HEK293 cells, decrease in GFP fluorescence; format: cell-based; set-up: expressed in transfected cells; details: HEK293 cells stably expressing ferroportin-GFP, at least 18 hours incubation; read-out: FPN EC50
T1 sequence (Q9NP59 1-571): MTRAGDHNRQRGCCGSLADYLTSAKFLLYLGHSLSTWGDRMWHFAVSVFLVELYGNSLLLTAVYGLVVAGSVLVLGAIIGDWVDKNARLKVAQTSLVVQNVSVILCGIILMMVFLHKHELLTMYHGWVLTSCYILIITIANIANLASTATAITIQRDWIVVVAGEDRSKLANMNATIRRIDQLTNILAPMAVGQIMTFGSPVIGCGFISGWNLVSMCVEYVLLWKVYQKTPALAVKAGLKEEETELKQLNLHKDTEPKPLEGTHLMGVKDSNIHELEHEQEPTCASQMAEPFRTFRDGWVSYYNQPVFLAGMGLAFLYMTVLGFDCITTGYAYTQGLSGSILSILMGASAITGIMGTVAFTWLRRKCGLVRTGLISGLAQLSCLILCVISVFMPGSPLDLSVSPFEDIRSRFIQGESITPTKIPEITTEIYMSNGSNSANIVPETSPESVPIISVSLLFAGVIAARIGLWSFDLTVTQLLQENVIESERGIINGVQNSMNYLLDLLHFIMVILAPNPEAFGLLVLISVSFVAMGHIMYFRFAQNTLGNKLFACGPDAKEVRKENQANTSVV

[2] = target: T1, ferroportin; experiment: T47D cell-based ferroportin internalization assay in presence of 0.5% mouse serum albumin (MSA), AF647-conjugated detection peptide, flow cytometry; set-up: a human breast carcinoma adherent cell line which endogenously expresses ferroportin; host or cells: T47D; details: T47D cells, 1 hr incubation
Method: The potency of the peptides in causing ferroportin internalization was evaluated in a T47D cell-based assay. […] In this internalization assay, the potency of the test peptides was evaluated in presence of serum albumin which is the main protein component in the blood. T47D cells were maintained in RPMI media (containing required amount of fetal bovine serum) and regularly sub-cultured. In preparation for the assay, the cells were seeded in 96-well plates at a density of 80-100 k cells per well in 100 ul volume and allowed to rest overnight. On the next day, test peptides were first prepared in dilution series (10-point series, starting concentration of ˜5 μM, typically 3-4×fold dilution steps), all with 0.5% mouse serum albumin (MSA purified from mouse serum; Sigma, A3139). The test peptide dilution series were allowed to incubate at room temperature for 30 min. Then the media was aspirated from the 96-well cell plate and test peptide dilution series were added. After 1 hr incubation, the media with test peptides was aspirated out and AF647-conjugated detection peptide was added at fixed concentration of 200 nM. The AF647-conjugated detection peptide was previously verified to bind to ferroportin and cause its internalization. The cells were washed again after a 2 hr incubation in preparation for flow cytometry analysis. The Median Fluorescence Intensity (MFI) of the AF647-positive population was measured (after removing dead cells and non-singlets from the analysis). The MFI values were used to generate a dose-response curve and obtain IC50 potencies for the test peptides. The IC50 potencies were calculated by using 4-parameter non-linear fitting function in Graphpad Prism (Table 2A).

SMILES | DC50 [1] [µM] | IC50 [2] [µM]
CC[C@H](C)[C@@H]1NC(=O)[C@@H](NC(=O)[C@@H]2CCCN2C(=O)[C@@H](NC(=O)[C@H](Cc2cncn2C)NC(=O)[C@@H](NC(=O)[C@H](CC2N=NN=N2)NC(=O)CC(C)C)[C@@H](C)O)C(c2ccccc2)c2ccccc2)CSSC[C@@H](C(N)=O)NC(=O)[C@@H](CCCCN)NC(=O)C[C@H](Cc2ccccc2)NC(=O)[C@H](CCCCNC(=O)COCCOCCNC(=O)COCCOCCNC(=O)CC[C@H](NC(=O)CCCCCCCCCCCCCCCCC(=O)O)C(=O)O)NC1=O [Compd 8, Isovaleric Acid-[Tet1]-T-[His_3Me]-[Dpa]-P-[Cys]-I-[Lys(1PEG2_1PEG2_IsoGlu_C18_Diacid)]-[bhPhe]-[(D)Lys]-[Cys]-NH2] | 0.01 to 0.1 | 0.1 to 0.5
CC[C@H](C)[C@@H]1NC(=O)[C@@H](NC(=O)[C@@H]2CCCN2C(=O)[C@@H](NC(=O)[C@H](Cc2c[nH]cn2)NC(=O)[C@@H](NC(=O)[C@H](Cc2nn[nH]n2)NC(=O)CC(C)C)[C@@H](C)O)C(c2ccccc2)c2ccccc2)CSSC[C@H](C(N)=O)NC(=O)C[C@H](Cc2ccccc2)NC(=O)[C@H](CCCCNC(=O)COCCOCCNC(=O)COCCOCCNC(=O)CC[C@H](NC(=O)CCCCCCCCCCCCCCCCC(=O)O)C(=O)O)NC1=O [Compd 36, Isovaleric Acid-[Tet1]-T-H-[Dpa]-P-[Cys]-I-[Lys(1PEG2_1PEG2_IsoGlu_C18_Diacid)]-[bhPhe]-d[Cys]-NH2] (Isovaleryl-[Ala(1H-tetrazol-5-yl)]TH[Dip]PCIK([AEEA-AEEA-γGlu-C18 diacid])[β3hF][dC]-NH2; disulfide 6-10) | 0.01 to 0.1 | 0.1 to 0.5
CC[C@H](C)[C@@H]1NC(=O)[C@@H](NC(=O)[C@@H]2CCCN2C(=O)[C@@H](NC(=O)[C@H](Cc2c[nH]cn2)NC(=O)[C@@H](NC(=O)[C@H](Cc2nn[nH]n2)NC(=O)CC(C)C)[C@@H](C)O)C(c2ccccc2)c2ccccc2)CSSC[C@@H](C(N)=O)NC(=O)[C@@H](CCCCN)NC(=O)C[C@H](Cc2ccccc2)NC(=O)[C@H](CCCCNC(=O)COCCOCCNC(=O)COCCOCCNC(=O)CC[C@H](NC(=O)CCCCCCCCCCCCCCCCC(=O)O)C(=O)O)NC1=O [Compd 40, Isovaleric Acid-[Tet1]-T-H-[Dpa]-P-[Cys]-I-[Lys(1PEG2_1PEG2_IsoGlu_C18_Diacid)]-[bhPhe]-[(D)Lys]-[Cys]-NH2] (Isovaleryl-[Ala(1H-tetrazol-5-yl)]TH[Dip]PCIK([AEEA-AEEA-γGlu-C18 diacid])[β3hF][dK]C-NH2; disulfide 6-11) | 0.01 to 0.1 | 0.01 to 0.1
CC[C@H](C)[C@@H]1NC(=O)[C@@H](NC(=O)[C@@H]2CCCN2C(=O)[C@@H](NC(=O)[C@H](Cc2c[nH]cn2)NC(=O)[C@@H](NC(=O)[C@H](Cc2nn[nH]n2)NC(=O)C(C)(C)Br)[C@@H](C)O)C(c2ccccc2)c2ccccc2)CSSC[C@@H](C(N)=O)NC(=O)[C@@H](CCCCN)NC(=O)C[C@H](Cc2ccccc2)NC(=O)[C@H](CCCCNC(=O)COCCOCCNC(=O)COCCOCCNC(=O)CC[C@H](NC(=O)CCCCCCCCCCCCCCCCC(=O)O)C(=O)O)NC1=O [Compd 46, Propanoic_Acid_2Me2Br-[Tet1]-T-H-[Dpa]-P-[Cys]-I-[Lys(1PEG2_1PEG2_IsoGlu_C18_Diacid)]-[bhPhe]-[(D)Lys]-[Cys]-NH2] | 0.01 to 0.1 | 0.01 to 0.1
CC[C@H](C)[C@@H]1NC(=O)[C@@H](NC(=O)[C@@H]2CCCN2C(=O)[C@@H](NC(=O)[C@H](Cc2c[nH]cn2)NC(=O)[C@@H](NC(=O)[C@H](Cc2nn[nH]n2)NC(=O)CCC(F)(F)F)[C@@H](C)O)C(c2ccccc2)c2ccccc2)CSSC[C@@H](C(N)=O)NC(=O)[C@@H](CCCCN)NC(=O)C[C@H](Cc2ccccc2)NC(=O)[C@H](CCCCNC(=O)COCCOCCNC(=O)COCCOCCNC(=O)CC[C@H](NC(=O)CCCCCCCCCCCCCCCCC(=O)O)C(=O)O)NC1=O [Compd 47, TriF_Butyric_Acid-[Tet1]-T-H-[Dpa]-P-[Cys]-I-[Lys(1PEG2_1PEG2_IsoGlu_C18_Diacid)]-[bhPhe]-[(D)Lys]-[Cys]-NH2] (X4-[Ala(1H-tetrazol-5-yl)]TH[Dip]PCIK([AEEA-AEEA-γGlu-C18 diacid])[β3hF][dK]C-NH2; disulfide 6-11) | 0.01 to 0.1 | 0.1 to 0.5
CCCC(=O)N[C@@H](Cc1nn[nH]n1)C(=O)N[C@H](C(=O)N[C@@H](Cc1c[nH]cn1)C(=O)N[C@H](C(=O)N1CCC[C@H]1C(=O)N[C@H]1CSSC[C@@H](C(N)=O)NC(=O)[C@@H](CCCCN)NC(=O)C[C@H](Cc2ccccc2)NC(=O)[C@H](CCCCNC(=O)COCCOCCNC(=O)COCCOCCNC(=O)CC[C@H](NC(=O)CCCCCCCCCCCCCCCCC(=O)O)C(=O)O)NC(=O)[C@H]([C@@H](C)CC)NC1=O)C(c1ccccc1)c1ccccc1)[C@@H](C)O [Compd 49, Butyric_Acid-[Tet1]-T-H-[Dpa]-P-[Cys]-I-[Lys(1PEG2_1PEG2_IsoGlu_C18_Diacid)]-[bhPhe]-[(D)Lys]-[Cys]-NH2] | 0.01 to 0.1 | 0.01 to 0.1

The next lines start with the values.

DC50 [1] [µM] | IC50 [2] [µM] | SMILES
0.01 to 0.1 | 0.1 to 0.5 | CC[C@H](C)[C@@H]1NC(=O)[C@@H](NC(=O)[C@@H]2CCCN2C(=O)[C@@H](NC(=O)[C@H](Cc2c[nH]cn2)NC(=O)[C@@H](NC(=O)[C@H](Cc2nn[nH]n2)NC(=O)CC(C)C(F)(F)F)[C@@H](C)O)C(c2ccccc2)c2ccccc2)CSSC[C@@H](C(N)=O)NC(=O)[C@@H](CCCCN)NC(=O)C[C@H](Cc2ccccc2)NC(=O)[C@H](CCCCNC(=O)COCCOCCNC(=O)COCCOCCNC(=O)CC[C@H](NC(=O)CCCCCCCCCCCCCCCCC(=O)O)C(=O)O)NC1=O (stereo partly drawn) [Compd 45, Butyric_Acid_3CF3-[Tet1]-T-H-[Dpa]-P-[Cys]-I-[Lys(1PEG2_1PEG2_IsoGlu_C18_Diacid)]-[bhPhe]-[(D)Lys]-[Cys]-NH2]
0.01 to 0.1 | 0.001 to 0.01 | CCCCCCCCCCCCCCCC(=O)NCCCCCC(=O)NCCCC[C@@H]1NC(=O)C[C@H](Cc2ccccc2)NC(=O)[C@@H](CCCCNC(=O)CCOCCOCCOCCOCCOCCOCCOCCOCCOCCOCCOCCOC)NC(=O)[C@H]([C@@H](C)CC)NC(=O)[C@@H](NC(=O)[C@@H]2CCCN2C(=O)[C@@H](NC(=O)[C@H](Cc2c[nH]cn2)NC(=O)[C@@H](NC(=O)[C@H](Cc2nn[nH]n2)NC(=O)CC(C)C)[C@@H](C)O)C(c2ccccc2)c2ccccc2)CSSC[C@@H](C(N)=O)NC(=O)[C@@H](CCCCNC(=O)CCOCCOCCOCCOCCOCCOCCOCCOCCOCCOCCOCCOC)NC1=O [Compd 50, Isovaleric Acid-[Tet1]-T-H-[Dpa]-P-[Cys]-I-[(DLys(PEG11_OMe-[bhPhe]-[Lys(Ahx_Palm)]-[(D)Lys(PEG11_OMe)]-[Cys]-NH2] (Isovaleryl-[Ala(1H-tetrazol-5-yl)]TH[Dip]PCI[dK](CH3O(CH2CH2O)11CH2CH2CO)[β3hF]K([Ahx-Palmitoyl])[dK](CH3O(CH2CH2O)11CH2CH2CO)C-NH2; disulfide 6-12)
0.01 to 0.1 | 0.01 to 0.1 | CC[C@H](C)[C@@H]1NC(=O)[C@@H](NC(=O)[C@@H]2CCCN2C(=O)[C@@H](NC(=O)[C@H](Cc2cnc[nH]2)NC(=O)[C@@H](NC(=O)[C@H](CC2N=NN=N2)NC(=O)CC(C)C)[C@@H](C)O)C(c2ccccc2)c2ccccc2)CSSC[C@@H](C(N)=O)NC(=O)[C@@H](CCCCN)NC(=O)C[C@H](Cc2ccccc2)NC(=O)[C@H](CCCCNC(=O)COCCOCCNC(=O)COCCOCCNC(=O)CCCCCNC(=O)CCCCCCCCCCCCCCCCC(=O)O)NC1=O [Compd 51, Isovaleric Acid-[Tet1]-T-H-[Dpa]-P-[Cys]-I-[Lys(1PEG2_1PEG2_Ahx_C18_Diacid)]-[bhPhe]-[(D)Lys]-[Cys]-NH2]
